Reference: patent US20260324644A1, “HERBICIDE COMPOSITION AND A METHOD FOR BURNDOWN APPLICATION” (UPL Mauritius Limited, priority 2022, published 2026)
Like-named read-outs stand apart in the source and are kept apart here.

Experiments:
[1] = tested on: glutamine synthetase (GS); conditions: role: inhibitor, GS of bacteria and plants, cited from earlier work
[2] = tested on: plants; conditions: background statement; cited from earlier work
[3] = tested on: Digera arvensis; experiment: Greenhouse trial, burndown (non-crop) weed control, Digera arvensis; type: in vivo; conditions: 495 g a.i./ha
Protocol: (§1) Methodology: Greenhouse trials were conducted to evaluate the efficacy of the L-glufosinate on broad spectrum weeds at non-crop stage (burndown application).
(§2) The soil used was medium black soil. All treatments were in 3 replications per treatment with a spray volume of about 150 L/ha.
(§3) The percentage efficacy was calculated after 10 and 15 days of application (DAA). The herbicidal composition used was L-glufosinate (SL) at 150 g a.i./L and 280 g a.i./L. The application rate was 495 g a.i./ha. The target weeds were Amaranthus viridis, Amaranthus spinosus, Acalypha indica, Digera arvensis, Euphorbia geniculate, Portulaca oleracea, Parthenium hysterophrous, Phyllanthus maderaspatensis and the concentration of the herbicide and the results are recorded in Table 3.

[4] = tested on: Amaranthus viridis; experiment: Greenhouse trial, burndown (non-crop) weed control, Amaranthus viridis; type: in vivo; conditions: for % Control: 495 g a.i./ha
Protocol: as §1, §2
(§4) The percentage efficacy was calculated after 10 days of application (DAA). The target weeds were Amaranthus viridis, E. geniculate, P. oleracea, Brachiaria spp. and the concentration of the herbicide and the results are recorded in Table 1.
(§5) The percentage efficacy was calculated after 10 and 15 days of application (DAA). The herbicidal composition used was L-glufosinate (SL) at 150 g a.i./L. The application rate was 495 g a.i./ha. The target weeds were Amaranthus virids, A. spinosus, C. Album, E. geniculate, P. oleracea, P. hysterophrous, Brachiaria spp., D. retroflexa, E. colonum and the concentration of the herbicide and the results are recorded in Table 2.
as §3

[5] = tested on: E. colonum; experiment: Greenhouse trial, burndown (non-crop) weed control, E. colonum; type: in vivo; conditions: Example 2, SL 150 g a.i./L, 495 g a.i./ha
Protocol: as §1, §2, §5

[6] = tested on: Portulaca oleracea; experiment: Greenhouse trial, burndown (non-crop) weed control, Portulaca oleracea; type: in vivo; conditions: 495 g a.i./ha
Protocol: as §1, §2, §5, §3

[7] = tested on: Phyllanthus maderaspatensis; experiment: Greenhouse trial, burndown (non-crop) weed control, Phyllanthus maderaspatensis; type: in vivo; conditions: 495 g a.i./ha
Protocol: as §1, §2, §3

[8] = tested on: Brachiaria spp.; experiment: Greenhouse trial, burndown (non-crop) weed control, Brachiaria spp.; type: in vivo; conditions: for % Control: 495 g a.i./ha
Protocol: as §1, §2, §4, §5
(§6) The percentage efficacy was calculated after 10 and 15 days of application (DAA). The herbicidal composition used was L-glufosinate (SL) at 150 g a.i./L and 280 g a.i./L. The application rate was 495 g a.i./ha. The target weeds were Brachiaria spp., Dinebra retroflexa, Echonochloa colonum and the concentration of the herbicide and the results are recorded in Table 4.

[9] = tested on: Acalypha indica; experiment: Greenhouse trial, burndown (non-crop) weed control, Acalypha indica; type: in vivo; conditions: 495 g a.i./ha
Protocol: as §1, §2, §3

[10] = tested on: C. Album; experiment: Greenhouse trial, burndown (non-crop) weed control, C. Album; type: in vivo; conditions: Example 2, SL 150 g a.i./L, 495 g a.i./ha
Protocol: as §1, §2, §5

[11] = tested on: Parthenium hysterophrous; experiment: Greenhouse trial, burndown (non-crop) weed control, Parthenium hysterophrous; type: in vivo; conditions: 495 g a.i./ha
Protocol: as §1, §2, §5, §3

[12] = tested on: Euphorbia geniculate; experiment: Greenhouse trial, burndown (non-crop) weed control, Euphorbia geniculate; type: in vivo; conditions: for % Control after 10 DAA: Example 1; for % Control: 495 g a.i./ha
Protocol: as §1, §2, §4, §5, §3

[13] = tested on: Dinebra retroflexa; experiment: Greenhouse trial, burndown (non-crop) weed control, Dinebra retroflexa; type: in vivo; conditions: 495 g a.i./ha
Protocol: as §1, §2, §5, §6

[14] = tested on: Amaranthus spinosus; experiment: Greenhouse trial, burndown (non-crop) weed control, Amaranthus spinosus; type: in vivo; conditions: 495 g a.i./ha
Protocol: as §1, §2, §5, §3

[15] = Example 3, SL 150 g a.i./L, 10 DAA
[16] = Example 3, SL 150 g a.i./L, 15 DAA
[17] = Example 3, SL 280 g a.i./L, 10 DAA
[18] = Example 3, SL 280 g a.i./L, 15 DAA
[19] = Example 1, L-glufosinate (SL) 200 g a.i./L, rate 150 g a.i./ha, 10 DAA
[20] = Example 1, L-glufosinate (SL) 200 g a.i./L, rate 165 g a.i./ha, 10 DAA
[21] = Example 1, L-glufosinate (SL) 200 g a.i./L, rate 200 g a.i./ha, 10 DAA
[22] = Example 1, L-glufosinate (SL) 200 g a.i./L, rate 220 g a.i./ha, 10 DAA
[23] = Example 1, L-glufosinate (SL) 280 g a.i./L, rate 150 g a.i./ha, 10 DAA
[24] = Example 1, L-glufosinate (SL) 280 g a.i./L, rate 165 g a.i./ha, 10 DAA
[25] = Example 1, L-glufosinate (SL) 280 g a.i./L, rate 200 g a.i./ha, 10 DAA
[26] = Example 1, L-glufosinate (SL) 280 g a.i./L, rate 220 g a.i./ha, 10 DAA
[27] = Example 2, SL 150 g a.i./L, 10 DAA
[28] = Example 2, SL 150 g a.i./L, 15 DAA

CP(=O)(O)CC[C@@H](N)C(=O)O [D-glufosinate]
inhibition of glutamine synthetase (GS) [1]: not a GS inhibitor | herbicidal activity [2]: not herbicidally active

CP(=O)(O)CC[C@H](N)C(=O)O.N [L-glufosinate, (S)-2-amino-4-(hydroxy(methyl)phosphonoyl)butanoic acid]
% Control [3, 15]: 100% | % Control [3, 16]: 100% | % Control [3, 17]: 100% | % Control [3, 18]: 100% | % Control after 10 DAA [4, 19]: 100% | % Control after 10 DAA [4, 20]: 100% | % Control after 10 DAA [4, 21]: 100% | % Control after 10 DAA [4, 22]: 100% | % Control after 10 DAA [4, 23]: 100% | % Control after 10 DAA [4, 24]: 100% | % Control after 10 DAA [4, 25]: 100% | % Control after 10 DAA [4, 26]: 100% | % Control [4, 27]: 100% | % Control [4, 28]: 100% | % Control [4, 15]: 100% | % Control [4, 16]: 100% | % Control [4, 17]: 100% | % Control [4, 18]: 100% | % Control ([5]; 10 DAA): 90% | % Control ([5]; 15 DAA): 90% | % Control ([6]; Example 2, SL 150 g a.i./L, 10 DAA, P. oleracea): 88% | % Control ([6]; Example 2, SL 150 g a.i./L, 15 DAA, P. oleracea): 82% | % Control ([6]; Example 3, SL 150 g a.i./L, 10 DAA, Portulaca oleracea): 100% | % Control ([6]; Example 3, SL 150 g a.i./L, 15 DAA, Portulaca oleracea): 100% | % Control ([6]; Example 3, SL 280 g a.i./L, 10 DAA, Portulaca oleracea): 100% | % Control ([6]; Example 3, SL 280 g a.i./L, 15 DAA, Portulaca oleracea): 100% | % Control [7, 15]: 93% | % Control [7, 16]: 100% | % Control [7, 17]: 97% | % Control [7, 18]: 97% | inhibition of glutamine synthetase (GS) ([1]; listed as L-isomer of glufosinate): competitive inhibitor | inhibition of glutamine synthetase (GS) ([1]; listed as L-isomer): only the L-isomer inhibits GS | % Control after 10 DAA [8, 19]: 100% | % Control after 10 DAA [8, 20]: 100% | % Control after 10 DAA [8, 21]: 100% | % Control after 10 DAA [8, 22]: 100% | % Control after 10 DAA [8, 23]: 100% | % Control after 10 DAA [8, 24]: 100% | % Control after 10 DAA [8, 25]: 100% | % Control after 10 DAA [8, 26]: 100% | % Control [8, 27]: 93% | % Control [8, 28]: 100% | % Control ([8]; Example 4, SL 150 g a.i./L, 10 DAA): 100% | % Control ([8]; Example 4, SL 150 g a.i./L, 15 DAA): 100% | % Control ([8]; Example 4, SL 280 g a.i./L, 10 DAA): 100% | % Control ([8]; Example 4, SL 280 g a.i./L, 15 DAA): 100% | % Control [9, 15]: 80% | % Control [9, 16]: 100% | % Control [9, 17]: 87% | % Control [9, 18]: 100% | % Control ([10]; 10 DAA): 100% | % Control ([10]; 15 DAA): 100% | herbicidal activity [2]: herbicidally active | % Control ([11]; Example 2, SL 150 g a.i./L, 10 DAA, P. hysterophrous): 100% | % Control ([11]; Example 2, SL 150 g a.i./L, 15 DAA, P. hysterophrous): 100% | % Control ([11]; Example 3, SL 150 g a.i./L, 10 DAA, Parthenium hysterophrous): 93% | % Control ([11]; Example 3, SL 150 g a.i./L, 15 DAA, Parthenium hysterophrous): 93% | % Control ([11]; Example 3, SL 280 g a.i./L, 10 DAA, Parthenium hysterophrous): 97% | % Control ([11]; Example 3, SL 280 g a.i./L, 15 DAA, Parthenium hysterophrous): 97% | % Control after 10 DAA ([12]; L-glufosinate (SL) 200 g a.i./L, rate 150 g a.i./ha, 10 DAA, E. geniculate): 93% | % Control after 10 DAA ([12]; L-glufosinate (SL) 200 g a.i./L, rate 165 g a.i./ha, 10 DAA, E. geniculate): 95% | % Control after 10 DAA ([12]; L-glufosinate (SL) 200 g a.i./L, rate 200 g a.i./ha, 10 DAA, E. geniculate): 97% | % Control after 10 DAA ([12]; L-glufosinate (SL) 200 g a.i./L, rate 220 g a.i./ha, 10 DAA, E. geniculate): 93% | % Control after 10 DAA ([12]; L-glufosinate (SL) 280 g a.i./L, rate 150 g a.i./ha, 10 DAA, E. geniculate): 92% | % Control after 10 DAA ([12]; L-glufosinate (SL) 280 g a.i./L, rate 165 g a.i./ha, 10 DAA, E. geniculate): 90% | % Control after 10 DAA ([12]; L-glufosinate (SL) 280 g a.i./L, rate 200 g a.i./ha, 10 DAA, E. geniculate): 95% | % Control after 10 DAA ([12]; L-glufosinate (SL) 280 g a.i./L, rate 220 g a.i./ha, 10 DAA, E. geniculate): 93% | % Control ([12]; Example 2, SL 150 g a.i./L, 10 DAA, E. geniculate): 100% | % Control ([12]; Example 2, SL 150 g a.i./L, 15 DAA, E. geniculate): 100% | % Control ([12]; Example 3, SL 150 g a.i./L, 10 DAA, Euphorbia geniculate): 80% | % Control ([12]; Example 3, SL 150 g a.i./L, 15 DAA, Euphorbia geniculate): 100% | % Control ([12]; Example 3, SL 280 g a.i./L, 10 DAA, Euphorbia geniculate): 90% | % Control ([12]; Example 3, SL 280 g a.i./L, 15 DAA, Euphorbia geniculate): 100% | % Control ([13]; Example 2, SL 150 g a.i./L, 10 DAA, D. retroflexa): 100% | % Control ([13]; Example 2, SL 150 g a.i./L, 15 DAA, D. retroflexa): 100% | % Control ([13]; Example 4, SL 150 g a.i./L, 10 DAA, Dinebra retroflexa): 83% | % Control ([13]; Example 4, SL 150 g a.i./L, 15 DAA, Dinebra retroflexa): 70% | % Control ([13]; Example 4, SL 280 g a.i./L, 10 DAA, Dinebra retroflexa): 83% | % Control ([13]; Example 4, SL 280 g a.i./L, 15 DAA, Dinebra retroflexa): 70% | % Control ([14]; Example 2, SL 150 g a.i./L, 10 DAA, A. spinosus): 100% | % Control ([14]; Example 2, SL 150 g a.i./L, 15 DAA, A. spinosus): 100% | % Control ([14]; Example 3, SL 150 g a.i./L, 10 DAA, Amaranthus spinosus): 100% | % Control ([14]; Example 3, SL 150 g a.i./L, 15 DAA, Amaranthus spinosus): 100% | % Control ([14]; Example 3, SL 280 g a.i./L, 10 DAA, Amaranthus spinosus): 100% | % Control ([14]; Example 3, SL 280 g a.i./L, 15 DAA, Amaranthus spinosus): 100%
